We go through 24 molecules from patent publication US9169254B2, “Spiroimidazolone derivative” (Chugai Seiyaku Kabushiki Kaisha, priority 2009, dated 2015).

The assay has as its target T1, human PTH1 receptor (Homo sapiens, UniProt Q03431).
T1 sequence (Q03431 27-593): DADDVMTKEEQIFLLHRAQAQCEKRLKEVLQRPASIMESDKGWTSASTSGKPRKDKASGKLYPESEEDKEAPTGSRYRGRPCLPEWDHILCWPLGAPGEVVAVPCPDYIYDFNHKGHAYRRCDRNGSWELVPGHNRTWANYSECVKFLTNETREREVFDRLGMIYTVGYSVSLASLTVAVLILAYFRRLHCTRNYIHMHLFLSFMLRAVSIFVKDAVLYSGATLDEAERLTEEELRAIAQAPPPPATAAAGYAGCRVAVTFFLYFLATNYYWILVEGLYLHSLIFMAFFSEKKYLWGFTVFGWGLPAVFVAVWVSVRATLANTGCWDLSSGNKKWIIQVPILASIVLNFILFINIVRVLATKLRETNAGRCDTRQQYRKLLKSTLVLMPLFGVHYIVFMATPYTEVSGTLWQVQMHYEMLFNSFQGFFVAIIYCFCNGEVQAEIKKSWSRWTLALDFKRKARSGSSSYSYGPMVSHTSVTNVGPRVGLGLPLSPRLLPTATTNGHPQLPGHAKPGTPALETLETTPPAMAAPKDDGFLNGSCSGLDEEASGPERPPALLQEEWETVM
As to the kind of experiment: In vitro cAMP signal activity in HKRK-B7 cells (LLC-PK1 cells overexpressing the human PTH1 receptor). The format is cell-based. The settings on record: HKRK-B7 cells; compound at 1×10^−3 M; cAMP produced as percentage of that produced by hPTH(1-34) at 100 nM.
For the molecule `CC(C)COC(=O)Nc1ccc(CCS(=O)(=O)N2CCC3(CC2)N=C(C2CCCCC2)NC3=O)c(C(F)(F)F)c1` [Compound 661, {4-[2-(2-cyclohexyl-4-oxo-1,3,8-triaza-spiro[4.5]dec-1-ene-8-sulfonyl)-ethyl]-3-trifluoromethyl-phenyl}-carbamic acid isobutyl ester], the “cAMP production activity (%)” value is listed as 45%.

As for `Cc1cc(CN(C)C(=O)OC(C)(C)C)ccc1CCS(=O)(=O)N1CCC2(CC1)N=C(C1CCCCC1)NC2=O` [Compound 673, {4-[2-(2-cyclohexyl-4-oxo-1,3,8-triaza-spiro[4.5]dec-1-ene-8-sulfonyl)-ethyl]-3-methyl-benzyl}-methyl-carbamic acid tert-butyl ester], the “cAMP production activity (%)” value was determined as 27%.

Consider `Cc1cc(C(=O)N2CCC(O)(CF)CC2)cc(C)c1/C=C/S(=O)(=O)N1CCC2(CC1)N=C(c1cccc(C(F)(F)C(F)(F)F)c1)NC2=O` [Compound 1243, 8-{(E)-2-[4-(4-fluoromethyl-4-hydroxy-piperidine-1-carbonyl)-2,6-dimethyl-phenyl]-ethenesulfonyl}-2-(3-pentafluoroethyl-phenyl)-1,3,8-triaza-spiro[4.5]dec-1-en-4-one], for which the “cAMP production activity (%)” value amounted to 77%.

With `Cc1cc(N(C)C(N)=O)cc(C)c1CCS(=O)(=O)N1CCC2(CC1)N=C(CCCCCCCCCCCCCC(=O)O)NC2=O` [Compound 1350, 14-(8-{2-[2,6-dimethyl-4-(1-methyl-ureido)-phenyl]-ethanesulfonyl}-4-oxo-1,3,8-triaza-spiro[4.5]dec-1-en-2-yl)-tetradecanoic acid], the “cAMP production activity (%)” value stood at 22%.

For the molecule `Cc1cc(CNC(=O)OC(C)(C)C)ccc1CCS(=O)(=O)N1CCC2(CC1)N=C(C1CCC(F)(F)CC1)NC2=O` [Compound 163, (4-{2-[2-(4,4-difluoro-cyclohexyl)-4-oxo-1,3,8-triaza-spiro[4.5]dec-1-ene-8-sulfonyl]-ethyl}-3-methyl-benzyl)-carbamic acid tert-butyl ester], the “cAMP production activity (%)” value is given as 41%.

With `COc1ccc(CCCS(=O)(=O)N2CCC3(CC2)N=C(C2CCCCC2)NC3=O)cc1` [Compound 346, 2-Cyclohexyl-8-[3-(4-methoxy-phenyl)-propane-1-sulfonyl]-1,3,8-triaza-spiro[4.5]dec-1-en-4-one], the “cAMP production activity (%)” value is on record as 28%.

With `Cc1cc(NCCN(C)C)ccc1CCS(=O)(=O)N1CCC2(CC1)N=C(C1CCCCC1)NC2=O` [Compound 842, 2-cyclohexyl-8-{2-[4-(2-dimethylamino-ethylamino)-2-methyl-phenyl]-ethanesulfonyl}-1,3,8-triaza-spiro[4.5]dec-1-en-4-one], the “cAMP production activity (%)” value was 81%.

For the molecule `CCCCCCCCCC1=NC2(CCN(S(=O)(=O)CCc3c(C)cc(N(C)C(N)=O)cc3C)CC2)C(=O)N1` [Compound 817, 1-{3,5-dimethyl-4-[2-(2-nonyl-4-oxo-1,3,8-triaza-spiro[4.5]dec-1-ene-8-sulfonyl)-ethyl]-phenyl}-1-methyl-urea], the “cAMP production activity (%)” value came to 111%.

With `CONC(=O)Cc1ccc(CCS(=O)(=O)N2CCC3(CC2)N=C(C2CCC(C)CC2)NC3=O)c(C)c1` (stereo not drawn) [Compound 1388, N-methoxy-2-(3-methyl-4-{2-[2-(4-methyl-cyclohexyl)-4-oxo-1,3,8-triaza-spiro[4.5]dec-1-ene-8-sulfonyl]-ethyl}-phenyl)-acetamide], the “cAMP production activity (%)” value stood at 59%.

Consider `Cc1cc(C(=O)N2CCC(O)(CF)CC2)cc(C)c1/C=C/S(=O)(=O)N1CCC2(CC1)N=C(c1ccc(OCCCC(F)(F)F)c(C(F)(F)F)c1)NC2=O` [Compound 1250, 8-{(E)-2-[4-(4-fluoromethyl-4-hydroxy-piperidine-1-carbonyl)-2,6-dimethyl-phenyl]-ethenesulfonyl}-2-[4-(4,4,4-trifluoro-butoxy)-3-trifluoromethyl-phenyl]-1,3,8-triaza-spiro[4.5]dec-1-en-4-one], for which the “cAMP production activity (%)” value is 67%.

As for `CC(=O)Nc1ccc(CCS(=O)(=O)N2CCC3(CC2)N=C(C2CCC(OCCC(F)(F)F)CC2)NC3=O)c(C)c1` (stereo not drawn) [Compound 921, N-[3-methyl-4-(2-{4-oxo-2-[4-(3,3,3-trifluoro-propoxy)-cyclohexyl]-1,3,8-triaza-spiro[4.5]dec-1-ene-8-sulfonyl}-ethyl)-phenyl]-acetamide], the “cAMP production activity (%)” value is reported as 59%.

On to `Cc1cc(C(=O)N2CCC(O)(CF)CC2)cc(C)c1/C=C/S(=O)(=O)N1CCC2(CC1)N=C(c1ccc(S(F)(F)(F)(F)F)cc1)NC2=O` [Compound 1245, 8-{(E)-2-[4-(4-fluoromethyl-4-hydroxy-piperidine-1-carbonyl)-2,6-dimethyl-phenyl]-ethenesulfonyl}-2-(4-pentafluorosulfanyl-phenyl)-1,3,8-triaza-spiro[4.5]dec-1-en-4-one], for which the “cAMP production activity (%)” value came to 115%.

As for `Cc1cc(N(C)C(N)=O)cc(C)c1CCS(=O)(=O)N1CCC2(CC1)N=C(C(F)CCCCCCCC(F)(F)F)NC2=O` (stereo not drawn) [Compound 1151, 1-(3,5-Dimethyl-4-{2-[4-oxo-2-(1,9,9,9-tetrafluoro-nonyl)-1,3,8-triaza-spiro[4.5]dec-1-ene-8-sulfonyl]-ethyl}-phenyl)-1-methyl-urea], the “cAMP production activity (%)” value worked out at 105%.

For `Cc1cc(N(C(N)=O)C(C)C)cc(C)c1CCS(=O)(=O)N1CCC2(CC1)N=C(C1CCC(C)CC1)NC2=O` (stereo not drawn) [Compound 828, 1-(3,5-dimethyl-4-{2-[2-(4-methyl-cyclohexyl)-4-oxo-1,3,8-triaza-spiro[4.5]dec-1-ene-8-sulfonyl]-ethyl}-phenyl)-1-isopropyl-urea], the “cAMP production activity (%)” value is 92%.

Take `CC(=O)OC[C@H](CN(C(C)=O)c1ccc(CCS(=O)(=O)N2CCC3(CC2)N=C(c2cccc(C(F)(F)F)c2)NC3=O)c(C)c1)OC(C)=O` [Compound 150, Acetic acid (S)-1-acetoxymethyl-2-[acetyl-(3-methyl-4-{2-[4-oxo-2-(3-trifluoromethyl-phenyl)-1,3,8-triaza-spiro[4.5]dec-1-ene-8-sulfonyl]-ethyl}-phenyl)-amino]-ethyl ester]: the “cAMP production activity (%)” value is listed as 62%.

Take `O=C1NC(C2CCCCC2)=NC12CCN(S(=O)(=O)/C=C/c1cccc(F)c1C(F)(F)F)CC2` [Compound 185, 2-cyclohexyl-8-[(E)-2-(3-fluoro-2-trifluoromethyl-phenyl)-ethenesulfonyl]-1,3,8-triaza-spiro[4.5]dec-1-en-4-one]: the “cAMP production activity (%)” value turned out to be 33%.

On to `[2H]C([2H])([2H])C1([2H])CCC(C2=NC3(CCN([S@TB18](=O)(=O)/C=C/c4c(C)cc(N(C)C(N)=O)cc4C)CC3)C(=O)N2)CC1` (stereo not drawn) [Compound 1110, 1-(3,5-dimethyl-4-{(E)-2-[2-(4-[1,1,1-^2H3]methyl-[4-^2H1]cyclohexyl)-4-oxo-1,3,8-triaza-spiro[4.5]dec-1-ene-8-sulfonyl]-vinyl}-phenyl)-1-methyl-urea], for which the “cAMP production activity (%)” value worked out at 92%.

`NCCn1ccc2c(/C=C/S(=O)(=O)N3CCC4(CC3)N=C(C3CCCCC3)NC4=O)cccc21` [Compound 686, 8-{(E)-2-[1-(2-Amino-ethyl)-1H-indol-4-yl]-ethenesulfonyl}-2-cyclohexyl-1,3,8-triaza-spiro[4.5]dec-1-en-4-one]: the “cAMP production activity (%)” value came out at 22%.

In the case of `Cc1ccc(C(=O)N(C)C)cc1-c1ccc(S(=O)(=O)N2CCC3(CC2)N=C(c2ccc(F)c(C(F)(F)F)c2)NC3=O)s1` [Compound 334, 3-{5-[2-(4-fluoro-3-trifluoromethyl-phenyl)-4-oxo-1,3,8-triaza-spiro[4.5]dec-1-ene-8-sulfonyl]-thiophen-2-yl}-4,N,N-trimethyl-benzamide], the “cAMP production activity (%)” value amounted to 34%.

As for `Cc1c(/C=C/S(=O)(=O)N2CCC3(CC2)N=C(c2cccc(OC(F)(F)F)c2)NC3=O)cccc1OCCO` [Compound 256, 8-{(E)-2-[3-(2-Hydroxy-ethoxy)-2-methyl-phenyl]-ethenesulfonyl}-2-(3-trifluoromethoxy-phenyl)-1,3,8-triaza-spiro[4.5]dec-1-en-4-one], the “cAMP production activity (%)” value is given as 67%.

Turning to `CC(=O)Nc1ccc(CCS(=O)(=O)N2CCC3(CC2)N=C(c2cccc(C)c2)NC3=O)c(C)c1` [Compound 145, N-{3-Methyl-4-[2-(4-oxo-2-m-tolyl-1,3,8-triaza-spiro[4.5]dec-1-ene-8-sulfonyl)-ethyl]-phenyl}-acetamide], the “cAMP production activity (%)” value is 129%.

As for `Cc1cc(OC[C@H](O)CO)cc(C)c1/C=C/S(=O)(=O)N1CCC2(CC1)N=C(C1CCCCC1)NC2=O` [Compound 206, 2-cyclohexyl-8-{(E)-2-[4-((R)-2,3-dihydroxy-propoxy)-2,6-dimethyl-phenyl]-ethenesulfonyl}-1,3,8-triaza-spiro[4.5]dec-1-en-4-one], the “cAMP production activity (%)” value is on record as 70%.

As to `Cc1cc(N(C)C(N)=O)cc(C)c1CCS(=O)(=O)N1CCC2(CC1)N=C(CCCCCCCCCCCC(=O)O)NC2=O` [Compound 1170, 12-(8-{2-[2,6-dimethyl-4-(1-methyl-ureido)-phenyl]-ethanesulfonyl}-4-oxo-1,3,8-triaza-spiro[4.5]dec-1-en-2-yl)-dodecanoic acid], the “cAMP production activity (%)” value is given as 24%.

For `Cc1cc2ccc1CCS(=O)(=O)N1CCC3(CC1)N=C(NC3=O)c1cc(cc(C(F)(F)F)c1)OCC/C=C/CO[C@H]1CN(C[C@@H]1O)C2=O` [Compound 1424], the “cAMP production activity (%)” value was 29%.
